Source: ChEMBL document CHEMBL4196033, “Potent hydrazone derivatives targeting esophageal cancer cells” (Eur J Med Chem, 2018)
The source made the active and inactive calls. The rule behind the calls is not given here.

What was measured:
EC9706 [1] = experiment: Induction of apoptosis in human EC9706 cells assessed as increase in cleaved PARP protein expression after 48 hrs by Western blot analysis; assay type: functional, cell-based
Mus musculus [2] = experiment: Acute toxicity in C57BL/6 mouse assessed as histopathological changes in spleen at 2 g/kg, ig measured for 2 weeks by hematoxylin and eosin staining based microscopic method; assay type: organism-based; details: in vivo, po, 2000 mg/kg, 336 h
ECa-109 cell line [3] = experiment: Antiproliferative activity against human EC109 cells after 48 hrs by MTT assay; assay type: functional, cell-based; details: ECa-109, 48 h
EC9706 [4] = experiment: Effect on Prxs-1 protein expression in human EC9706 cells at 2 to 8 uM after 48 hrs by Western blot analysis; assay type: functional, cell-based
PC-3 = experiment: Antiproliferative activity against human PC3 cells after 72 hrs by MTT assay; assay type: functional, cell-based; details: PC-3, 72 h
EC9706 [5] = experiment: Induction of morphological changes in human EC9706 cells assessed as cell rounding after 48 hrs by Hoechst 33342 staining based fluorescence microscopic method; assay type: functional
EC9706 [6] = experiment: Induction of apoptosis in human EC9706 cells assessed as necrotic cells at 8 uM after 48 hrs by Annexin V-FITC/propidium iodide staining based flow cytometry (reference value: 1.1 to 1.31%); assay type: functional
Mus musculus [7] = experiment: Acute toxicity in C57BL/6 mouse assessed as histopathological changes in liver at 2 g/kg, ig measured for 2 weeks by hematoxylin and eosin staining based microscopic method; assay type: organism-based; details: in vivo, po, 2000 mg/kg, 336 h
ECa-109 cell line [8] = experiment: Induction of apoptosis in human EC109 cells assessed as increase in cleaved caspase-8 protein expression after 48 hrs by Western blot analysis; assay type: functional, cell-based
ECa-109 cell line [9] = experiment: Induction of apoptosis in human EC109 cells assessed as early apoptotic cells at 4 uM after 48 hrs in presence of caspase inhibitor Z-VAD-FMK by Annexin V-FITC/propidium iodide staining based flow cytometry (reference value: 0.52%); assay type: functional
ECa-109 cell line [10] = experiment: Induction of ROS generation in human EC109 cells at 2 to 4 uM after 24 hrs in presence of anti-oxidant NAC by DCFH-DA staining based flow cytometry; assay type: functional, cell-based
EC9706 [11] = experiment: Antiproliferative activity against human EC9706 cells after 72 hrs by MTT assay; assay type: functional, cell-based; details: EC9706, 72 h
ECa-109 cell line [12] = experiment: Induction of apoptosis in human EC109 cells assessed as decrease in Bcl2 protein expression after 48 hrs by Western blot analysis; assay type: functional, cell-based
ECa-109 cell line [13] = experiment: Induction of apoptosis in human EC109 cells assessed as increase in tBid protein expression at 2 to 8 uM after 48 hrs by Western blot analysis; assay type: functional, cell-based
ECa-109 cell line [14] = experiment: Induction of apoptosis in human EC109 cells assessed as early apoptotic cells at 4 uM after 48 hrs by Annexin V-FITC/propidium iodide staining based flow cytometry (reference value: 0.43 to 1.15%); assay type: functional
MCF7 = experiment: Antiproliferative activity against human MCF7 cells after 72 hrs by MTT assay; assay type: functional, cell-based; details: MCF7, 72 h
EC9706 [15] = experiment: Induction of morphological changes in human EC9706 cells assessed as apoptotic body formation after 48 hrs by Hoechst 33342 staining based fluorescence microscopic method; assay type: functional, cell-based
ECa-109 cell line [16] = experiment: Induction of apoptosis in human EC109 cells assessed as early apoptotic cells at 8 uM after 48 hrs in presence of caspase inhibitor Z-VAD-FMK by Annexin V-FITC/propidium iodide staining based flow cytometry (reference value: 0.52%); assay type: functional
EC9706 [17] = experiment: Induction of ROS generation in human EC9706 cells at 4 uM after 24 hrs by DCFH-DA staining based flow cytometry relative to control; assay type: functional
ECa-109 cell line [18] = experiment: Antiproliferative activity against human EC109 cells after 72 hrs by MTT assay; assay type: functional, cell-based; details: ECa-109, 72 h
EC9706 [19] = experiment: Induction of apoptosis in human EC9706 cells assessed as early apoptotic cells at 4 uM after 48 hrs by Annexin V-FITC/propidium iodide staining based flow cytometry (reference value: 0.68 to 1.58%); assay type: functional
ECa-109 cell line [20] = experiment: Induction of ROS generation in human EC109 cells at 2 uM after 24 hrs by DCFH-DA staining based flow cytometry relative to control; assay type: functional
ECa-109 cell line [21] = experiment: Induction of apoptosis in human EC109 cells assessed as decrease in Bid protein expression at 2 to 8 uM after 48 hrs by Western blot analysis; assay type: functional, cell-based
EC9706 [22] = experiment: Induction of apoptosis in human EC9706 cells assessed as increase in cleaved caspase-8 protein expression after 48 hrs by Western blot analysis; assay type: functional, cell-based
EC9706 [23] = experiment: Induction of apoptosis in human EC9706 cells assessed as late apoptotic cells at 2 uM after 48 hrs by Annexin V-FITC/propidium iodide staining based flow cytometry (reference value: 1.29 to 1.99%); assay type: functional
ECa-109 cell line [24] = experiment: Induction of apoptosis in human EC109 cells assessed as necrotic cells at 4 uM after 48 hrs by Annexin V-FITC/propidium iodide staining based flow cytometry (reference value: 0.74 to 1.18%); assay type: functional
EC9706 [25] = experiment: Upregulation of p27 protein expression in human EC9706 cells at 2 uM after 24 to 48 hrs by Western blot analysis relative to control; assay type: functional
ECa-109 cell line [26] = experiment: Induction of apoptosis in human EC109 cells assessed as late apoptotic cells at 4 uM after 48 hrs by Annexin V-FITC/propidium iodide staining based flow cytometry (reference value: 0.2 to 1.74%); assay type: functional
EC9706 [27] = experiment: Induction of apoptosis in human EC9706 cells at 2 to 4 uM after 48 hrs in presence of anti-oxidant NAC by Annexin V-FITC/propidium iodide staining based flow cytometry; assay type: functional, cell-based
Mus musculus [28] = experiment: Acute toxicity in C57BL/6 mouse assessed as change in body weight at 2 g/kg, ig measured for 2 weeks; assay type: organism-based; details: in vivo, po, 2000 mg/kg, 336 h
EC9706 [29] = experiment: Induction of apoptosis in human EC9706 cells assessed as live cells at 4 uM after 48 hrs by Annexin V-FITC/propidium iodide staining based flow cytometry (reference value: 85.5 to 96%); assay type: functional
ECa-109 cell line [30] = experiment: Induction of apoptosis in human EC109 cells assessed as increase in cleaved caspase-9 protein expression after 48 hrs by Western blot analysis; assay type: functional, cell-based
ECa-109 cell line [31] = experiment: Effect on Prxs-2 protein expression in human EC109 cells at 2 to 8 uM after 48 hrs by Western blot analysis; assay type: functional, cell-based
EC9706 [32] = experiment: Induction of apoptosis in human EC9706 cells assessed as early apoptotic cells at 4 uM after 48 hrs in presence of caspase inhibitor Z-VAD-FMK by Annexin V-FITC/propidium iodide staining based flow cytometry (reference value: 0.33%); assay type: functional
ECa-109 cell line [33] = experiment: Induction of morphological changes in human EC109 cells assessed as cell rounding after 48 hrs by Hoechst 33342 staining based fluorescence microscopic method; assay type: functional
ECa-109 cell line [34] = experiment: Induction of apoptosis in human EC109 cells assessed as late apoptotic cells at 2 uM after 48 hrs by Annexin V-FITC/propidium iodide staining based flow cytometry (reference value: 0.2 to 1.74%); assay type: functional
EC9706 [35] = experiment: Cell cycle arrest in human EC9706 cells assessed as increase in G0/G1 phase population at 2 uM after 24 hrs by propidium iodide staining based flow cytometry relative to control; assay type: functional
ECa-109 cell line [36] = experiment: Induction of apoptosis in human EC109 cells assessed as necrotic cells at 2 uM after 48 hrs by Annexin V-FITC/propidium iodide staining based flow cytometry (reference value: 0.74 to 1.18%); assay type: functional

**Q.** For `COc1ccc(/C=N/NC(=O)c2cccc(S(=O)(=O)N3CCOCC3)c2)c(O)c1`, which Activity (EC9706 [1]) is on record?
**A.** Dose-dependent effect

**Q.** What about the Activity (Mus musculus [2]) of the same compound?
**A.** Non-Toxic

**Q.** And the IC50 (ECa-109 cell line [3])?
**A.** 11.3 µM

**Q.** What about the Activity (EC9706 [4]) of the same compound?
**A.** Active

**Q.** What about the IC50 (PC-3) of the same compound?
**A.** 5.8 µM

**Q.** And the Activity (EC9706 [5])?
**A.** Dose-dependent effect

**Q.** What about the Activity (EC9706 [6]) of the same compound?
**A.** 10.1 - 10.2%

**Q.** What about the Activity (Mus musculus [7]) of the same compound?
**A.** Non-Toxic

**Q.** What about the Activity (ECa-109 cell line [8]) of the same compound?
**A.** Dose-dependent effect

**Q.** And the Activity (ECa-109 cell line [9])?
**A.** 9.34%

**Q.** And the Activity (ECa-109 cell line [10])?
**A.** inactive

**Q.** And the IC50 (EC9706 [11])?
**A.** 1.09 µM

**Q.** And the Activity (ECa-109 cell line [12])?
**A.** Dose-dependent effect

**Q.** What about the Activity (ECa-109 cell line [13]) of the same compound?
**A.** Active

**Q.** And the Activity (ECa-109 cell line [14])?
**A.** 17.8 - 22.4%

**Q.** What about the IC50 (MCF7) of the same compound?
**A.** 5.14 µM

**Q.** And the Activity (EC9706 [15])?
**A.** Dose-dependent effect

**Q.** What about the Activity (ECa-109 cell line [16]) of the same compound?
**A.** 14.1%

**Q.** What about the “fold change (FC)” value (EC9706 [17]) of the same compound?
**A.** 1.45

**Q.** What about the IC50 (ECa-109 cell line [18]) of the same compound?
**A.** 2.79 µM

**Q.** And the Activity (EC9706 [19])?
**A.** 10.8 - 29.9%

**Q.** And the “fold change (FC)” value (ECa-109 cell line [20])?
**A.** 1.81

**Q.** And the Activity (ECa-109 cell line [21])?
**A.** Active

**Q.** What about the Activity (EC9706 [22]) of the same compound?
**A.** Dose-dependent effect

**Q.** What about the Activity (EC9706 [23]) of the same compound?
**A.** 6.25%

**Q.** And the Activity (ECa-109 cell line [24])?
**A.** 4.45 - 11.3%

**Q.** And the “fold change (FC)” value (EC9706 [25])?
**A.** 1.3

**Q.** What about the Activity (ECa-109 cell line [26]) of the same compound?
**A.** 17.4 - 31.1%

**Q.** What about the Activity (EC9706 [27]) of the same compound?
**A.** inactive

**Q.** And the Activity (Mus musculus [28])?
**A.** Non-Toxic

**Q.** What about the Activity (EC9706 [29]) of the same compound?
**A.** 34.2 - 61.2%

**Q.** What about the Activity (ECa-109 cell line [30]) of the same compound?
**A.** Dose-dependent effect

**Q.** And the Activity (ECa-109 cell line [31])?
**A.** Active

**Q.** What about the Activity (EC9706 [32]) of the same compound?
**A.** 13.3%

**Q.** What about the Activity (ECa-109 cell line [33]) of the same compound?
**A.** Dose-dependent effect

**Q.** And the Activity (ECa-109 cell line [34])?
**A.** 6.84%

**Q.** And the “fold change (FC)” value (EC9706 [35])?
**A.** 1.07

**Q.** What about the Activity (ECa-109 cell line [36]) of the same compound?
**A.** 2.64%
